Test results taken from publication PMC12090182, “Repurposing of the RIPK1-Selective Benzo[1,4]oxazepin-4-one Scaffold for the Development of a Type III LIMK1/2 Inhibitor” (ACS Chemical Biology, 2025).
Like-named read-outs stand apart in the source and are kept apart here.

System: HEK293T cells
Format: cell-based
Method in brief: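 HEK293T and U2OS cells (DMEM) and MRC-9 fibroblasts (EMEM) exposed to compounds at 1 and 10 μM. Live-cell confocal imaging of cell shape and fluorescence before and at 12, 24 and 48 h. Normalized to 0.1% DMSO; biological duplicates with SEM.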

[1] = 1 µM, 0 h, HEK293T, replicate 2
[2] = 1 µM, 12 h, HEK293T, replicate 2
[3] = 1 µM, 24 h, HEK293T, replicate 2
[4] = 1 µM, 48 h, HEK293T, replicate 1
[5] = 1 µM, 48 h, HEK293T, replicate 2
[6] = 10 µM, 0 h, HEK293T, replicate 2
[7] = 10 µM, 12 h, HEK293T, replicate 2
[8] = 10 µM, 24 h, HEK293T, replicate 2
[9] = 10 µM, 48 h, HEK293T, replicate 2
[10] = HEK293T, 1 µM, 0 h after treatment
[11] = HEK293T, 1 µM, 12 h after treatment
[12] = HEK293T, 1 µM, 24 h after treatment
[13] = HEK293T, 10 µM, 0 h after treatment
[14] = HEK293T, 10 µM, 12 h after treatment
[15] = HEK293T, 10 µM, 24 h after treatment
[16] = HEK293T, 10 µM, 48 h after treatment

CN1C(=O)[C@@H](N2CCc3c(nn(Cc4ccccc4)c3C(N)=O)C2=O)COc2cc(Cl)ccc21 [Compound 10, (S)-2-benzyl-6-(8-chloro-5-methyl-4-oxo-2,3,4,5-tetrahydrobenzo[b][1,4]oxazepin-3-yl)-7-oxo-4,5,6,7-tetrahydro-2H-pyrazolo[3,4-c]pyridine-3-carboxamide]
Cell count normalized to cells treated with DMSO control [1]: 0.9791
Cell count per well [1]: 224
Population Fragmented Nuclei (%) [1]: 4.50%
Population Healthy Nuclei (%) [1]: 67.00%
Population Pyknosed Nuclei (%) [1]: 28.50%
Population apoptotic cell (%) [1]: 66.67%
Population cell that influence microtubule strucutre (%) [1]: 23.88%
Population with increased mitochondrial mass (%) [1]: 83.58%
Population with membrane disruption (%) [1]: 0.00%
Cell count normalized to cells treated with DMSO control [2]: 1.07
Cell count per well [2]: 375
Population Fragmented Nuclei (%) [2]: 6.44%
Population Healthy Nuclei (%) [2]: 80.67%
Population Pyknosed Nuclei (%) [2]: 12.89%
Population apoptotic cell (%) [2]: 23.91%
Population cell that influence microtubule strucutre (%) [2]: 20.49%
Population with increased mitochondrial mass (%) [2]: 45.83%
Population with membrane disruption (%) [2]: 0.69%
Cell count normalized to cells treated with DMSO control [3]: 1.152
Cell count per well [3]: 520
Population Fragmented Nuclei (%) [3]: 9.33%
Population Healthy Nuclei (%) [3]: 82.94%
Population Pyknosed Nuclei (%) [3]: 7.74%
Population apoptotic cell (%) [3]: 43.59%
Population cell that influence microtubule strucutre (%) [3]: 13.64%
Population with increased mitochondrial mass (%) [3]: 27.75%
Population with membrane disruption (%) [3]: 0.24%
Cell count normalized to cells treated with DMSO control [4]: 1.025
Cell count per well [4]: 1037
Population Fragmented Nuclei (%) [4]: 16.00%
Population Healthy Nuclei (%) [4]: 79.80%
Population Pyknosed Nuclei (%) [4]: 4.20%
Population apoptotic cell (%) [4]: 6.98%
Population cell that influence microtubule strucutre (%) [4]: 10.88%
Population with increased mitochondrial mass (%) [4]: 12.47%
Population with membrane disruption (%) [4]: 2.32%
Cell count normalized to cells treated with DMSO control [5]: 1.189
Cell count per well [5]: 812
Population Fragmented Nuclei (%) [5]: 18.11%
Population Healthy Nuclei (%) [5]: 75.56%
Population Pyknosed Nuclei (%) [5]: 6.33%
Population apoptotic cell (%) [5]: 17.65%
Population cell that influence microtubule strucutre (%) [5]: 11.82%
Population with increased mitochondrial mass (%) [5]: 11.00%
Population with membrane disruption (%) [5]: 1.97%
cytotoxicity (1 μM, HEK293T): no cytotoxicity
Cell count normalized to cells treated with DMSO control [6]: 0.8086
Cell count per well [6]: 185
Population Fragmented Nuclei (%) [6]: 2.99%
Population Healthy Nuclei (%) [6]: 66.47%
Population Pyknosed Nuclei (%) [6]: 30.54%
Population apoptotic cell (%) [6]: 64.71%
Population cell that influence microtubule strucutre (%) [6]: 27.03%
Population with increased mitochondrial mass (%) [6]: 85.59%
Population with membrane disruption (%) [6]: 0.00%
Cell count normalized to cells treated with DMSO control [7]: 0.8449
Cell count per well [7]: 296
Population Fragmented Nuclei (%) [7]: 7.69%
Population Healthy Nuclei (%) [7]: 76.54%
Population Pyknosed Nuclei (%) [7]: 15.77%
Population apoptotic cell (%) [7]: 63.41%
Population cell that influence microtubule strucutre (%) [7]: 38.69%
Population with increased mitochondrial mass (%) [7]: 77.89%
Population with membrane disruption (%) [7]: 0.00%
Cell count normalized to cells treated with DMSO control [8]: 0.8682
Cell count per well [8]: 392
Population Fragmented Nuclei (%) [8]: 11.70%
Population Healthy Nuclei (%) [8]: 77.99%
Population Pyknosed Nuclei (%) [8]: 10.31%
Population apoptotic cell (%) [8]: 56.76%
Population cell that influence microtubule strucutre (%) [8]: 28.21%
Population with increased mitochondrial mass (%) [8]: 65.71%
Population with membrane disruption (%) [8]: 0.00%
Cell count normalized to cells treated with DMSO control [9]: 0.7573
Cell count per well [9]: 517
Population Fragmented Nuclei (%) [9]: 16.37%
Population Healthy Nuclei (%) [9]: 77.05%
Population Pyknosed Nuclei (%) [9]: 6.59%
Population apoptotic cell (%) [9]: 39.39%
Population cell that influence microtubule strucutre (%) [9]: 19.17%
Population with increased mitochondrial mass (%) [9]: 40.93%
Population with membrane disruption (%) [9]: 0.00%
toxicity (10 μM, within the 48 h time frame, b30 names HEK293T (apoptotic cell population)): slight increase in toxicity
impact on tubulin, mitochondrial mass, and cellular permeability in healthy cells (HEK293T, 1 μM (Figure 6)): comparable to that of the 0.1% DMSO control
Cell count normalized to cells treated with DMSO control [10]: 1.066
Cell count per well [10]: 318
Population Fragmented Nuclei (%) [10]: 7.28%
Population Healthy Nuclei (%) [10]: 48.28%
Population Pyknosed Nuclei (%) [10]: 44.44%
Population apoptotic cell (%) [10]: 40.52%
Population cell that influence microtubule strucutre (%) [10]: 21.43%
Population with increased mitochondrial mass (%) [10]: 63.49%
Population with membrane disruption (%) [10]: 0.00%
Cell count normalized to cells treated with DMSO control [11]: 1.032
Cell count per well [11]: 470
Population Fragmented Nuclei (%) [11]: 6.59%
Population Healthy Nuclei (%) [11]: 81.41%
Population Pyknosed Nuclei (%) [11]: 12.00%
Population apoptotic cell (%) [11]: 25.49%
Population cell that influence microtubule strucutre (%) [11]: 28.03%
Population with increased mitochondrial mass (%) [11]: 37.86%
Population with membrane disruption (%) [11]: 0.58%
Cell count normalized to cells treated with DMSO control [12]: 1.043
Cell count per well [12]: 633
Population Fragmented Nuclei (%) [12]: 13.01%
Population Healthy Nuclei (%) [12]: 77.59%
Population Pyknosed Nuclei (%) [12]: 9.39%
Population apoptotic cell (%) [12]: 29.82%
Population cell that influence microtubule strucutre (%) [12]: 18.05%
Population with increased mitochondrial mass (%) [12]: 21.02%
Population with membrane disruption (%) [12]: 0.85%
Cell count normalized to cells treated with DMSO control [13]: 0.8779
Cell count per well [13]: 262
Population Fragmented Nuclei (%) [13]: 12.05%
Population Healthy Nuclei (%) [13]: 39.73%
Population Pyknosed Nuclei (%) [13]: 48.21%
Population apoptotic cell (%) [13]: 50.00%
Population cell that influence microtubule strucutre (%) [13]: 14.61%
Population with increased mitochondrial mass (%) [13]: 59.55%
Population with membrane disruption (%) [13]: 0.00%
Cell count normalized to cells treated with DMSO control [14]: 0.8806
Cell count per well [14]: 401
Population Fragmented Nuclei (%) [14]: 9.68%
Population Healthy Nuclei (%) [14]: 77.15%
Population Pyknosed Nuclei (%) [14]: 13.17%
Population apoptotic cell (%) [14]: 46.94%
Population cell that influence microtubule strucutre (%) [14]: 42.51%
Population with increased mitochondrial mass (%) [14]: 57.84%
Population with membrane disruption (%) [14]: 0.00%
Cell count normalized to cells treated with DMSO control [15]: 0.8057
Cell count per well [15]: 489
Population Fragmented Nuclei (%) [15]: 10.83%
Population Healthy Nuclei (%) [15]: 78.34%
Population Pyknosed Nuclei (%) [15]: 10.83%
Population apoptotic cell (%) [15]: 43.14%
Population cell that influence microtubule strucutre (%) [15]: 28.46%
Population with increased mitochondrial mass (%) [15]: 48.51%
Population with membrane disruption (%) [15]: 0.27%
Cell count normalized to cells treated with DMSO control [16]: 0.8197
Cell count per well [16]: 829
Population Fragmented Nuclei (%) [16]: 23.14%
Population Healthy Nuclei (%) [16]: 71.74%
Population Pyknosed Nuclei (%) [16]: 5.12%
Population apoptotic cell (%) [16]: 33.33%
Population cell that influence microtubule strucutre (%) [16]: 14.26%
Population with increased mitochondrial mass (%) [16]: 26.32%
Population with membrane disruption (%) [16]: 0.51%
